The values below come from US7615646B2, “Chiral indole intermediates and their fluorescent cyanine dyes containing functional groups” (Carnegie Mellon University, priority 2002, dated 2009).

The nature of this data set: Measurement of pKa values of pH-sensitive cyanine dyes (fluorescence intensity versus pH). The conditions noted are these: for pKa: observed in aqueous phosphate buffers via fluorescence, excitation 640 nm, emission 680 nm; for lowering of dye pKa relative to dye 1: Cl on the unquaternized indolenine unit. Format: physicochemical. On the procedure:
The general method of pKa determination was performed as follows. Purified dye was dissolved in water to give a bulk stock solution (if necessary, a limited amount of acetonitrile was added to ensure solubility). By experiment, the volume of this stock solution that was required to be added to 10.0 ml of water+0.1% v/v trifluoroacetic acid, in order to give an absorbance of 0.5±0.02 at the dye peak wavelength, was determined. This volume of bulk stock solution was then added to 10.0 ml of water, to be used as the working stock solution.
Aqueous phosphate buffers were prepared covering the region of pH 4-9 {see “Data for Biochemical Research”, p. 432, 3rd edition, R. M. C Dawson, D. C. Elliott, W. H. Elliott & K. M. Jones, 1987 Oxford University Press. Buffers outside the listed range were made by adding in orthophosphoric acid or sodium hydroxide}. Plastic fluorescence cuvettes were then charged with 3.5 ml of each buffer. A fixed volume of dye working stock solution (in the range 50-250 μl) was added to a cuvette of buffer, the solution mixed and the fluorescence signal measured immediately {Perkin Elmer LS55 fluorimeter, excitation 640 nm. Emission spectrum was scanned and fluorescence intensity value at 680 nm recorded}. This was repeated for all cuvettes. The graph of fluorescence intensity versus pH was plotted using PRISM, the data fitted to a sigmoidal dose-response curve and the pKa value extracted as the calculated IC50 value from the fitting.

In turn, `CC1(CCCCCC(=O)O)C(/C=C/C=C/C=C2/Nc3c(Cl)cc(S(=O)(=O)O)cc3C2(C)C)=[N+](CCCCS(=O)(=O)[O-])c2ccc(S(=O)(=O)O)cc21` (stereo not shown) [Dye 4, 3-(5-carboxypentyl)-2-[(1E,3E,5E)-5-(7-chloro-3,3-dimethyl-5-sulfo-1,3-dihydro-2H-indol-2-ylidene)penta-1,3-dienyl]-3-methyl-5-sulfo-1-(4-sulfobutyl)-3H-indolium] registered a pKa of 6.2.
For “3-(5-carboxypentyl)-2-[(1E,3E,5E)-5-(7-chloro-3,3-dimethyl-5-sulfo-1,3-dihydro-2H-indol-2-ylidene)penta-1,3-dienyl]-3-methyl-5-sulfo-1-(4-sulfobutyl)-3H-indolium [Dye 4]”, the “lowering of dye pKa relative to dye 1” value is roughly 0.8 units.
`CC1(CCCCCC(=O)ON2C(=O)CCC2=O)C(/C=C/C=C/C=C2/Nc3c(Cl)cc(S(=O)(=O)O)cc3C2(C)C)=[N+](CCCCS(=O)(=O)[O-])c2ccc(S(=O)(=O)O)cc21` (stereo not shown) [Dye 16.3, 3-(5-Carboxypentyl)-2-[(1E,3E,5E)-5-(7-chloro-3,3-dimethyl-5-sulfo-1,3-dihydro-2H-indol-2-ylidene)penta-1,3-dienyl]-3-methyl-5-sulfo-1-(4-sulfobutyl)-3H-indolium, N-hydroxysuccinimidyl ester] gave a pKa of 6.2.
As to `CC1(C)C(/C=C/C=C/C=C2/Nc3ccccc3C2(C)C)=[N+](CCCCS(=O)(=O)[O-])c2ccc(S(=O)(=O)O)cc21` [Example 5], the pKa came to 7.
For `CC1(C)C(/C=C/C=C/C=C2/Nc3ccc(S(=O)(=O)O)cc3C2(C)CCCCCC(=O)O)=[N+](CCCCS(=O)(=O)[O-])c2ccc(Cl)cc21` (stereo not shown) [Example 3], the pKa was found to be 7.44.
The compound `CC1(C)C(/C=C/C=C/C=C2/Nc3ccc(S(=O)(=O)O)cc3C2(C)C)=[N+](CCCCS(=O)(=O)[O-])c2ccc(S(=O)(=O)O)cc21` [Dye 6, 2-[(1E,3E,5E)-5-(3,3-dimethyl-5-sulfo-1,3-dihydro-2H-indol-2-ylidene)penta-1,3-dienyl]-3,3-dimethyl-5-sulfo-1-(4-sulfobutyl)-3H-indolium] gave a pKa of 7.
The same measure, in the same setting: in the case of `CC1(C)C(/C=C/C=C/C=C2/Nc3ccc(S(=O)(=O)O)cc3C2(C)C)=[N+](CCCCS(=O)(=O)[O-])c2ccc(Cl)cc21` [Example 9] it was 7.36.
Regarding `CC1(CCCCCC(=O)O)C(/C=C/C=C/C=C2/Nc3c(Cl)cc(Cl)cc3C2(C)C)=[N+](CCCCS(=O)(=O)[O-])c2ccc(S(=O)(=O)O)cc21` (stereo not shown) [Dye 2, 3-(5-carboxypentyl)-2-[(1E,3E,5E)-5-(5,7-dichloro-3,3-dimethyl-1,3-dihydro-2H-indol-2-ylidene)penta-1,3-dienyl]-3-methyl-5-sulfo-1-(4-sulfobutyl)-3H-indolium], the “lowering of dye pKa relative to dye 1” value was roughly 1.0 units and the pKa worked out at 6.05.
`CC1(C)C(/C=C/C=C/C=C2/Nc3ccc(Cl)cc3C2(C)C)=[N+](CCCCS(=O)(=O)[O-])c2ccc(S(=O)(=O)O)cc21` [Example 7] displayed a pKa of 6.65.
Still for that read-out and setting: in the case of `CC1(C)C(/C=C/C=C/C=C2/Nc3ccc(S(=O)(=O)O)cc3C2(C)CCCCCC(=O)O)=[N+](CCCCS(=O)(=O)[O-])c2ccc(S(=O)(=O)O)cc21` (stereo not shown) [Dye 1, 2-{(1E,3E,5E)-5-[3-(5-carboxypentyl)-3-methyl-5-sulfo-1,3-dihydro-2H-indol-2-ylidene]penta-1,3-dienyl}-3,3-dimethyl-5-sulfo-1-(4-sulfobutyl)-3H-indolium] it was 7.
In the case of `CC1(C)C(/C=C/C=C/C=C2/Nc3ccc(Cl)cc3C2(C)C)=[N+](CCCCS(=O)(=O)[O-])c2ccc(S(=O)(=O)O)cc21` [Dye 7, 2-[(1E,3E,5E)-5-(5-chloro-3,3-dimethyl-1,3-dihydro-2H-indol-2-ylidene)penta-1,3-dienyl]-3,3-dimethyl-5-sulfo-1-(4-sulfobutyl)-3H-indolium], the “lowering of dye pKa relative to dye 1” value was 0.3-0.4 units.
In turn, `CC1(C)C(/C=C/C=C/C=C2/Nc3ccc(C#N)cc3C2(C)C)=[N+](CCCCS(=O)(=O)[O-])c2ccc(S(=O)(=O)O)cc21` [Example 8] showed a pKa of 6.65.
